From PMC8041284, “Tunable Methacrylamides for Covalent Ligand Directed Release Chemistry” (Journal of the American Chemical Society, 2021)
Like-named read-outs stand apart in the source and are kept apart here.

Target: BTK (Homo sapiens, UniProt Q06187)
Assay: biochemical
[1] = read-out: BTK inhibition (%), 0.75 uM BTK, […] probe 3l, 15 min preincubation

Sequence of BTK (Q06187 402-655 limits assumed): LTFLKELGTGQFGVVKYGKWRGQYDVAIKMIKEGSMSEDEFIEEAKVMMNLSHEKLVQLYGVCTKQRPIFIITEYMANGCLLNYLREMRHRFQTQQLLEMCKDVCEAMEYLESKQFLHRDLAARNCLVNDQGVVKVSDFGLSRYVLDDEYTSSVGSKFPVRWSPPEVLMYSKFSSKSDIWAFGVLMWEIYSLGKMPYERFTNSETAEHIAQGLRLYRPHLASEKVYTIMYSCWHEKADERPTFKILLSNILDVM

Row | Compound | inhibition at 10 µM [1] [%] | inhibition at 10 µM (read-out: BTK inhibition (%)) [%]
1 | O=C(NCCN1CCOCC1)c1ccc(Cl)cc1 [PCM-0064796] | -3.9 | 
2 | Cc1ccc(=O)n(-c2ccccc2)c1 [PCM-0064803] | 20.7 | 
3 | O=C(C1CCCCC1)N1CC(=O)N2CCc3ccccc3C2C1 (stereo not drawn) [PCM-0064807] | -5.4 | 
4 | O=C1CCC(N2C(=O)c3ccccc3C2=O)C(=O)N1 (stereo not drawn) [PCM-0064817] | 5.5 | 
5 | Cc1cc2c(s1)Nc1ccccc1N=C2N1CCN(C)CC1 [PCM-0064824] | -8.6 | 
6 | COc1ccccc1N1CCN(CCN(C(=O)C2CCCCC2)c2ccccn2)CC1 [PCM-0064827] | -6.2 | 
7 | CC[C@@H](C(N)=O)N1CCCC1=O [PCM-0064838] | 15.6 | 
8 | CCCNCC(O)COc1ccccc1C(=O)CCc1ccccc1 (stereo not drawn) [PCM-0064846] | 2.3 | 
9 | CNC[C@H](O)c1cccc(O)c1 [PCM-0064848] | -20.2 | 
10 | CN1CCN(CCCN2c3ccccc3Sc3ccc(C(F)(F)F)cc32)CC1 [PCM-0064852] | -4.7 | 
11 | CCCCNC(=O)NS(=O)(=O)c1ccc(C)cc1 [PCM-0064855] | -11.7 | 
12 | O=c1n(CCCN2CCN(c3cccc(Cl)c3)CC2)nc2ccccn12 [PCM-0064865] | -0.9 | 
13 | N#CC(C#N)=Cc1ccc(O)c(O)c1 [PCM-0064867] | 54.5 | 
14 | CC(C)N(CCC(=O)c1ccc2ccccc2c1)Cc1ccccc1 [PCM-0064875] | 29 | 
15 | O=C(O)c1cccnc1Nc1cccc(C(F)(F)F)c1 [PCM-0064877] | 24.1 | 
16 | N=C(N)c1ccc(OCCCCCOc2ccc(C(=N)N)cc2)cc1 [PCM-0064878] | -4.7 | 
17 | O=C(Nc1ccncc1)c1cc([N+](=O)[O-])ccc1Cl [PCM-0064887] | 10.9 | 
18 | C=CCc1cccc(/C=N/NC(=O)CN2CCN(Cc3ccccc3)CC2)c1O [PCM-0064890] | 9 | 
19 | CCN(CC)C(=S)SSC(=S)N(CC)CC [PCM-0064895] | -5.5 | 
20 | Cc1cccc(C)c1NC1=NCCCS1 [PCM-0064906] |  | -21.8
21 | NCC(O)c1ccc(O)cc1 (stereo not drawn) [PCM-0064912] | 2.3 | 

Row | Compound | inhibition at 10 µM [1] [%] | inhibition at 10 µM (read-out: BTK inhibition (%)) [%]
22 | Cn1cc(C2=C(c3ccc(Cl)cc3Cl)C(=O)NC2=O)c2ccccc21 [PCM-0064915] | 3.4 | 
23 | CS(=O)(=O)Nc1ccc([N+](=O)[O-])cc1Oc1ccccc1 [PCM-0064916] | 3.4 | 
24 | CN1[C@@H]2CCC[C@H]1CC(NC(=O)c1nn(C)c3ccccc13)C2 (stereo partly drawn) [PCM-0064932] | 10.2 | 
25 | CC(C)(C)c1cc(C=C(C#N)C#N)cc(C(C)(C)C)c1O [PCM-0064935] | 15.2 | 
26 | CCOC(=O)C1=C[C@]2(CC)CCCN3CCc4c(n1c1ccccc41)[C@@H]32 [PCM-0064941] | -14.5 | 
27 | C[C@]12C=CC(=O)C=C1CC[C@H]1[C@@H]3C[C@@H](O)[C@](O)(C(=O)CO)[C@@]3(C)C[C@H](O)[C@@]12F [PCM-0064944] | 2.1 | 
28 | CC12CC3CC(C)(C1)CC(N)(C3)C2 [PCM-0064948] | 7.8 | 
29 | CS(=O)(=O)c1cccc(CNc2nc(Nc3ccc4c(c3)CCC(=O)N4)ncc2C(F)(F)F)c1 [PCM-0064954] | 55.2 | 
30 | NC(=O)CN1CCCC1=O [PCM-0064964] | -16.3 | 
31 | CN[C@H]1CC[C@@H](c2ccc(Cl)c(Cl)c2)c2ccccc21 [PCM-0064965] | -19.5 | 
32 | COc1ccccc1N1CCN(CCCNc2cc(=O)n(C)c(=O)n2C)CC1 [PCM-0064976] | -0.8 | 
33 | CN[C@H](CC(C)C)C(=O)N[C@H]1C(=O)N[C@@H](CC(N)=O)C(=O)N[C@H]2C(=O)N[C@H]3C(=O)N[C@H](C(=O)N[C@H](C(=O)O)c4cc(O)cc(O)c4-c4cc3ccc4O)[C@H](O)c3ccc(c(Cl)c3)Oc3cc2cc(c3O[C@@H]2O[C@H](CO)[C@@H](O)[C@H](O)[C@H]2O[C@H]2C[C@](C)(N)[C@H](O)[C@H](C)O2)Oc2ccc(cc2Cl)[C@H]1O [PCM-0064980] | 4.3 | 
34 | CC(C)(C)NC[C@H](O)COc1nsnc1N1CCOCC1 [PCM-0064983] | -3.9 | 
35 | Cc1cc(C(C)(C)C)cc(C)c1CC1=NCCN1 [PCM-0064984] | -0.8 | 
36 | CC(C)NCC(O)COc1ccc(COCCOC(C)C)cc1 (stereo not drawn) [PCM-0064988] | -31.9 | 
37 | C[C@]12N[C@H](Cc3ccccc31)c1ccccc12 [PCM-0064989] |  | 3.9
38 | O=C(c1ccc(F)cc1)C1CCN(CCn2c(=O)[nH]c3ccccc3c2=O)CC1 [PCM-0065006] | 0 | 
39 | COc1cc(Cc2cnc(N)nc2N)cc(OC)c1OC [PCM-0065007] | -7.8 | 
40 | Oc1ccc2ccccc2c1SSc1c(O)ccc2ccccc12 [PCM-0065009] | 17.2 | 
41 | COc1ccc(/C=C/C(=O)Nc2ccccc2C(=O)O)cc1OC [PCM-0065010] | 13.8 | 
42 | Nc1nc(N)c2nc(-c3ccccc3)c(N)nc2n1 [PCM-0065015] | -4.7 | 

Row | Compound | inhibition at 10 µM [1] [%] | inhibition at 10 µM (read-out: BTK inhibition (%)) [%]
43 | CCc1cncnc1N1CCN(Cc2nc3ccc(C(F)(F)F)cc3[nH]2)CC1 [PCM-0065022] | -22.8 | 
44 | CC(C)N(CCC(C(N)=O)(c1ccccc1)c1ccccn1)C(C)C (stereo not drawn) [PCM-0065027] | 5.4 | 
45 | CCN(CC)CCOCCOC(=O)C1(c2ccccc2)CCCC1 [PCM-0065027] | 4.7 | 
46 | Cc1ccc(-c2cc(C(F)(F)F)nn2-c2ccc(S(N)(=O)=O)cc2)cc1 [PCM-0065035] | 22.8 | 
47 | COc1ccc([C@@H]2Sc3ccccc3N(CCN(C)C)C(=O)[C@@H]2OC(C)=O)cc1 [PCM-0065036] | 17.1 | 
48 | O=c1ccc2ccc(O)c(O)c2o1 [PCM-0065041] | 15.9 | 
49 | Cc1nc2n(c(=O)c1CCN1CCC(c3noc4cc(F)ccc34)CC1)CCCC2O (stereo not drawn) [PCM-0065046] | 6 | 
50 | CC(C)OC(=O)C(C)(C)Oc1ccc(C(=O)c2ccc(Cl)cc2)cc1 [PCM-0065053] | 8.6 | 
51 | CC(C)(C(=O)O)c1ccc(C(O)CCCN2CCC(C(O)(c3ccccc3)c3ccccc3)CC2)cc1 (stereo not drawn) [PCM-0065056] | -10.3 | 
52 | O=c1c(-c2ccc(O)cc2)coc2cc(O)ccc12 [PCM-0065064] | -7.8 | 
53 | Cc1cn([C@H]2C=C[C@@H](CO)O2)c(=O)[nH]c1=O [PCM-0065071] | 2.3 | 
54 | O=C(c1ccc(OCCCc2cnc[nH]2)cc1)C1CC1 [PCM-0065087] | -14.5 | 
55 | COCCCC/C(=N\OCCN)c1ccc(C(F)(F)F)cc1 [PCM-0065088] | -8.6 | 
56 | COCCOC(=O)C1=C(C)NC(C)=C(C(=O)OC/C=C/c2ccccc2)C1c1cccc([N+](=O)[O-])c1 (stereo not drawn) [PCM-0065102] | 59.9 | 
57 | COc1ccccc1OCCNCC(O)COc1cccc2[nH]c3ccccc3c12 (stereo not drawn) [PCM-0065111] | -7.8 | 
58 | O=c1[nH]c2ccccc2n1CCCN1CCC(n2c(=O)[nH]c3cc(Cl)ccc32)CC1 [PCM-0065112] | 5.4 | 
59 | CNC[C@H](O)c1ccc(O)c(O)c1 [PCM-0065121] | -9.3 | 
60 | O=C(CCCN1CCC(O)(c2ccc(Cl)cc2)CC1)c1ccc(F)cc1 [PCM-0065124] | -12.5 | 
61 | CCOC(=O)c1ncn2c1CN(C)C(=O)c1cc(F)ccc1-2 [PCM-0065129] | 3.1 | 
62 | NCCc1ccc(O)c(O)c1 [PCM-0065130] | -2.3 | 
63 | CCOC(=O)C1=C(C)NC(C)=C(C(=O)OC)C1c1cccc(Cl)c1Cl (stereo not drawn) [PCM-0065133] | 17.9 | 

Row | Compound | inhibition at 10 µM [1] [%] | inhibition at 10 µM (read-out: BTK inhibition (%)) [%]
64 | CN(CCOc1ccc(NS(C)(=O)=O)cc1)CCc1ccc(NS(C)(=O)=O)cc1 [PCM-0065138] | -7 | 
65 | Nc1ccn([C@H]2CC[C@@H](CO)O2)c(=O)n1 [PCM-0065156] | -22.6 | 
66 | NNc1nncc2ccccc12 [PCM-0065163] | -0.9 | 
67 | COC(=O)C1=CO[C@@H](O)[C@@H]2C(CO)=CC[C@H]12 [PCM-0065168] | -1.6 | 
68 | NC(=O)NO [PCM-0065169] | 10.9 | 
69 | O=c1c(-c2ccc(O)cc2)coc2cc(O)cc(O)c12 [PCM-0065176] | 16.6 | 
70 | O=C(O)COCCN1CCN(C(c2ccccc2)c2ccc(Cl)cc2)CC1 (stereo not drawn) [PCM-0065180] | 15.2 | 
71 | Cc1cccc(C)c1NC(=O)CN1CCCC1=O [PCM-0065191] | -8.6 | 
72 | NC(N)=N/N=C/c1c(Cl)cccc1Cl [PCM-0065199] | -2.3 | 
73 | NC(=O)OCC(COC(N)=O)c1ccccc1 [PCM-0065204] | 3.1 | 
74 | Fc1ccc(C(c2ccc(F)cc2)N2CCN(C/C=C/c3ccccc3)CC2)cc1 [PCM-0065210] | 87.2 | 
75 | Cc1ccccc1N1C(=O)c2cc(S(N)(=O)=O)c(Cl)cc2NC1C (stereo not drawn) [PCM-0065217] | -4.7 | 
76 | CN(C)C(=O)[C@H](O)[C@H](Cc1ccccc1)NC(=O)c1cc2cc(Cl)ccc2[nH]1 [PCM-0065218] | 5.4 | 
77 | CN(C)CCOC(c1ccccc1)c1ccccc1 [PCM-0065230] | 2.1 | 
78 | C[N+](C)(C)CCCCCC[N+](C)(C)C [PCM-0065242] | -14.5 | 
79 | O=c1[nH]cc(F)c(=O)[nH]1 [PCM-0065247] | -0.7 | 
80 | Nc1nc2c(ncn2COC(CO)CO)c(=O)[nH]1 [PCM-0065253] | -3.9 | 
81 | C[C@@](Cc1ccc(O)c(O)c1)(NN)C(=O)O [PCM-0065259] | -14.8 | 
